According to patent US20240025849A1 (MAX DELBRÜCK-CENTRUM FÜR MOLEKULARE MEDIZIN IN DER …, priority 2020, published 2024):
Several values for one entry are separate records, joined by “and”; a condition that tells them apart may be missing. Identical values can stand only once. Entries after “also recorded” stand apart in the source; their conditions may differ.

Columns and labels:
[1] = tested on: C57Bl/6 mice after 30 minutes MCAO; test: Middle cerebral artery occlusion (MCAO) model of mild ischemic injury; format: in vivo, mouse; settings: 5 mg/kg i.p. daily
Method: Animals and Group Allocation for middle cerebral artery occlusion (MCAO) study. C57BL/6 (13 weeks old, Charles River, Germany) male mice were handled according to governmental (LaGeSo-G0249/15) and internal (MDC/Charitd) rules and regulations, having free access to food and water. A total of 24 male mice were analysed after a 30 minutes of left-sided MCAO. Animals were randomly attributed to treatment paradigms, and experimenters were blinded at all stages of interventions. The mice were injected intraperitoneally (i.p.) every day for the 7 days, subsequently of the behavioral tests, with the compound (n=11) or with the vehicle ([…], n=13).
Induction of cerebral ischemia. Mice were anesthetized for induction with 3-4% isoflurane and maintained in 1.5% isoflurane in 70% N2O and 30% O2 using a vaporizer. MCAO was essentially performed as described elsewhere (Endres et al., 2000). In brief, brain ischemia was induced with a silicone rubber-coated monofilament 7-0, diameter 0.06-0.09 mm, length 20 mm; diameter with coating […]; coating length 9-10 mm. The filament was introduced into the internal carotid artery up to the anterior cerebral artery. Thereby, the middle cerebral artery and anterior choroidal arteries were occluded. The filament was removed after 30 min to allow reperfusion.
MRI was performed using a 7 Tesla rodent scanner (Pharmascan 70/16, Bruker BioSpin, Bruker, Billerica, USA) with a 16 cm horizontal bore magnet and a 9 cm (inner diameter) shielded gradient with an H-resonance-frequency of 300 MHz and a maximum gradient strength of 300 mT/m. For imaging a 20 mm-1H-RF quadrature-volume resonator with an inner diameter of 20 mm was used. Data acquisition and image processing were carried out with the Bruker software Paravision 5.1. During the examinations mice were placed on a heated circulating water blanket to ensure constant body temperature of 37° C. Anaesthesia was induced with 2.5% and maintained with 2.0-1.5% isoflurane (Forene, Abbot, Wiesbaden, Germany) delivered in an O2/N2 mixture (0.3/0.7 L/min) via a facemask under constant ventilation monitoring (Small Animal Monitoring & Gating System, SA Instruments, New York, USA). For imaging the mouse brain a T2-weighted 2D turbo spin-echo sequence was used (imaging parameters TR/TE=4200/36 ms, rare factor 8, 4 averages, 32 axial slices with a slice thickness of 0.5 mm, field of view of 2.56×2.56 cm, matrix size 256×256).
Calculation of lesion volume was carried out with the program Analyze 10.0 (AnalyzeDirect, Inc., Overland Park, USA). The hyperintense ischemic areas in axial T2-weighted images were assigned with a region of interest tool. This enables threshold based segmentation by connecting all pixels within a specified threshold range about the selected seed pixel and results in 3D object map of the whole stroke region. Further the total volume of the whole object map was automatically calculated.
The Rotarod test was performed to access motor coordination using a treadmill with a diameter of 3 cm (TSE Systems, Chesterfield, USA). This test was performed with accelerating velocity (4-40 rpm) and maximal velocity was achieved after 300 s. The time until the animals dropped was measured. Animals were trained on day 2 and 3 before MCAO and baseline was taken on the day before MCAO. Tests were always performed four times and means were used for statistical analysis.
A vertical pole (80 cm high with rough surface) was used for this test, to analyse extrapyramidal motor locomotion. Mice were placed head upward on the top of the pole. The time taken to orientate the body completely downwards, making a 180° turn (t turn), and to reach the floor with all four paws (t down) were recorded. If the animal was unsuccessful for either task, it was scored the maximum time that any other animal from the same experimental group took to perform the task. Animals were trained on day 2 and 3 before MCAO and baseline was taken on the day before MCAO. […]

[2] = tested on: bone marrow derived macrophages; test: Cytokine release (IL1β, IL6, TNFα) ELISA in macrophages; format: cell-based, mouse; settings: 1 μg/mL LPS 48 hours
Method: Primary cultured macrophages. Bone marrow macrophages were isolated from C57BL/6 adult mice (P49-56) as previously described (Marim et al., 2010). In summary, mice were killed by cervical dislocation and the femurs were removed by cutting through the tibia near the pelvic bone and below the knee. Any muscle connected to the bone was carefully removed. Ice cold sterile PBS was slowly flushed through the bone and the contents were collected in a sterile 15 mL polypropylene tube on ice. After centrifugation for 10 min at 200 g at 4° C., red blood cells were lysed by adding 3-10 mL ammonium chloride solution. After a 3-5 min recovery period, the suspension was centrifuged for 10 min at 200 g at 4° C. and the supernatant was removed. Cells were plated in a 10 cm dish with plain medium containing 10 ng/mL M-CSF and cultured for 7 days to allow differentiation. 50 000 cells were plated with 200 μL medium per well in a 96 well plate.
Enzyme-linked immunosorbent assay (ELISA). Cells were seeded according to the protocols described above, after compounds and stimuli were added, the supernatant was collected, centrifuged (500 g, 5 minutes) and stored at −20° C. until analysed. The following kits from Bio-Techne (Minneapolis, USA) were used to detect IL1β, IL6 and TNFα: ELISA Mouse IL-1β/IL-1F2 Duo Set, ELISA Mouse IL-6, ELISA Mouse TNFα. ELISA assays were performed according to the manufacturers protocol.

COc1ccc(NC(=O)C(NC(=O)C2CCCN2C(=O)OCc2ccccc2)c2ccc(OC)cc2)cc1 (stereo not shown) [C1]
pole test, time descending the pole ([1]; day 2 after MCAO): 6.592 s | pole test, time to turn 180° ([1]; day 2 after MCAO): 1.175 s | accelerated Rotarod test ([1]; day 2 and 5 after MCAO, vs vehicle): no differences; also recorded: No significant difference | volume of the ischemic lesion (MRI) ([1]; day 3 after MCAO, vs vehicle): did not cause a significant difference; also recorded: No significant difference | pole test, difference to control group ([1]; day 5 after MCAO): No differences were observed | corner test, turns to the left in 10 turns ([1]; day 6 after MCAO): 7.00 | LPS induced release of IL1β [2]: not changed; also recorded: Neither the treatment with C1 nor with DMSO showed any significant changes | LPS induced release of IL6 [2]: not changed; also recorded: Neither the treatment with C1 nor with DMSO showed any significant changes | reduction of TNFα release ([2]; 2.5 μM (highest concentration) C1): 9% and 5% | release of TNFα, % of positive control ([2]; 2.5 μM C1): 91%
